Laboratory results as given in patent US8192962B2, “Processes for detecting toxic substances” (Daikin Industries, Ltd., priority 2001, dated 2012).

Test system: Genes belonging to other category
Assay: DNA chip mRNA expression in yeast, genes belonging to other category (Table 9)
Assay type: cell-based, Saccharomyces cerevisiae S288C
Experimental: Yeast (Saccharomyces cerevisiae S288C (α SUC2mal mel gap2 CUP1)) were incubated at 25° C. on YPD medium (yeast extract 1%, polypepton 2%, glucose 2%). One of toxic chemical substances was added to the cells at logarithmic growth phase, and the cells were further incubated for two hours. Cells were cultured without any chemical substance in the same condition, and were used as control. Concentrations of the chemical substances were defined to inhibit the growth of the yeast but not lead to death.
After completion of the incubation, the culture was centrifuged to collect the cells. To the cells, sodium acetate buffer (50 mM sodium acetate, 10 mM EDTA, 1% SDS) was added, and the mixture was shaken at 65° C. for five minutes, followed by returning to room temperature, and obtaining the supernatant, of which the procedures were repeated two times. To the supernatant, ½ amount of a solution of phenol/chloroform was added, and the mixture was centrifuged to give a supernatant, which was added with an equal amount of chloroform, and the mixture was centrifuged to give a supernatant. To the supernatant, an equal amount of isopropanol containing 0.3 M sodium acetate was added, and the mixture was allowed to stand at room temperature for 30 minutes, after which the mixture was centrifuged to give a sediment of the whole RNAs. Seventy % ethanol was added to the sediment, and the mixture was again centrifuged to give a sediment, which was then dried and dissolved in water. mRNA was isolated from the whole RNAs as followings. In view of the fact that a poly A chain is attached to the 3′ terminus of mRNA, a polynucleotide having a poly T structure which was immobilized on the surface of latex beads was used to trap the mRNA, and then the mRNA was washed and eluted with spine column (Oligotex-dT30<Super>mRNA Purification Kit, Takara). Reverse transcription of the mRNA was conducted with a reverse transcriptase (Super Script II Reverse Transcriptase; catalogue No. 18064-014, GibcoBRL) using fluorescence-labeled nucleotides to give cDNAs that were introduced with Cy3-dUTP or Cy5-dUTP during the reverse transcription.
The labeled cDNAs were dissolved in TE buffer (10mM Tris-HCl/1 mM EDTA, pH8.0), and the solution was dropped on the DNA chip containing the whole genes of yeast (DNA Chip Research Inc. Japan) so that the cDNAs were hybridized on the DNA chip at 65° C. for over 12 hours. The fluoresces intensity of the DNA chip was read with a scanner, and the ratio relative to the fluorescence intensity resulting from the absence of chemical substance was estimated as the following, which is shown in Tables 1 to 9: […]

COc1cc(CNC(=O)CCCCC=CC(C)C)ccc1O [(12), 8-methyl-N-vanillyl-6-nonenamide]
The level of expressed mRNA in the presence of chemical substance/The level of expressed mRNA in the absence of chemical substance (yeast gene YEL066W): 0.8 | The level of expressed mRNA in the presence of chemical substance/The level of expressed mRNA in the absence of chemical substance (yeast gene YER021W): 1.0 | The level of expressed mRNA in the presence of chemical substance/The level of expressed mRNA in the absence of chemical substance (yeast gene YER039C): 0.9 | The level of expressed mRNA in the presence of chemical substance/The level of expressed mRNA in the absence of chemical substance (yeast gene YER048C): 0.8 | The level of expressed mRNA in the presence of chemical substance/The level of expressed mRNA in the absence of chemical substance (yeast gene YER100W): 0.8 | The level of expressed mRNA in the presence of chemical substance/The level of expressed mRNA in the absence of chemical substance (yeast gene YER107C): 0.7 | The level of expressed mRNA in the presence of chemical substance/The level of expressed mRNA in the absence of chemical substance (yeast gene YER130C): 1.0 | The level of expressed mRNA in the presence of chemical substance/The level of expressed mRNA in the absence of chemical substance (yeast gene YFL022C): 0.6 | The level of expressed mRNA in the presence of chemical substance/The level of expressed mRNA in the absence of chemical substance (yeast gene YFL028C): 1.1 | The level of expressed mRNA in the presence of chemical substance/The level of expressed mRNA in the absence of chemical substance (yeast gene YFL043C): 0.9 | The level of expressed mRNA in the presence of chemical substance/The level of expressed mRNA in the absence of chemical substance (yeast gene YGL011C): 1.0 | The level of expressed mRNA in the presence of chemical substance/The level of expressed mRNA in the absence of chemical substance (yeast gene YGL094C): 0.8 | The level of expressed mRNA in the presence of chemical substance/The level of expressed mRNA in the absence of chemical substance (yeast gene YGL150C): 0.8 | The level of expressed mRNA in the presence of chemical substance/The level of expressed mRNA in the absence of chemical substance (yeast gene YGL158W): 1.3 | The level of expressed mRNA in the presence of chemical substance/The level of expressed mRNA in the absence of chemical substance (yeast gene YGL207W): 0.7 | The level of expressed mRNA in the presence of chemical substance/The level of expressed mRNA in the absence of chemical substance (yeast gene YGL229C): 1.1 | The level of expressed mRNA in the presence of chemical substance/The level of expressed mRNA in the absence of chemical substance (yeast gene YGR023W): 0.9 | The level of expressed mRNA in the presence of chemical substance/The level of expressed mRNA in the absence of chemical substance (yeast gene YGR036C): 1.0 | The level of expressed mRNA in the presence of chemical substance/The level of expressed mRNA in the absence of chemical substance (yeast gene YGR136W): 1.2 | The level of expressed mRNA in the presence of chemical substance/The level of expressed mRNA in the absence of chemical substance (yeast gene YGR189C): 1.3 | The level of expressed mRNA in the presence of chemical substance/The level of expressed mRNA in the absence of chemical substance (yeast gene YGR201C): 1.9 | The level of expressed mRNA in the presence of chemical substance/The level of expressed mRNA in the absence of chemical substance (yeast gene YGR213C): 10.6 | The level of expressed mRNA in the presence of chemical substance/The level of expressed mRNA in the absence of chemical substance (yeast gene YGR257C): 0.9 | The level of expressed mRNA in the presence of chemical substance/The level of expressed mRNA in the absence of chemical substance (yeast gene YGR270W): 0.8 | The level of expressed mRNA in the presence of chemical substance/The level of expressed mRNA in the absence of chemical substance (yeast gene YGR279C): 0.7 | The level of expressed mRNA in the presence of chemical substance/The level of expressed mRNA in the absence of chemical substance (yeast gene YHR004C): 0.9 | The level of expressed mRNA in the presence of chemical substance/The level of expressed mRNA in the absence of chemical substance (yeast gene YHR027C): 1.0 | The level of expressed mRNA in the presence of chemical substance/The level of expressed mRNA in the absence of chemical substance (yeast gene YHR071W): 0.8 | The level of expressed mRNA in the presence of chemical substance/The level of expressed mRNA in the absence of chemical substance (yeast gene YHR139C): 1.6 | The level of expressed mRNA in the presence of chemical substance/The level of expressed mRNA in the absence of chemical substance (yeast gene YHR142W): 1.3 | The level of expressed mRNA in the presence of chemical substance/The level of expressed mRNA in the absence of chemical substance (yeast gene YHR160C): 0.8 | The level of expressed mRNA in the presence of chemical substance/The level of expressed mRNA in the absence of chemical substance (yeast gene YHR161C): 1.0 | The level of expressed mRNA in the presence of chemical substance/The level of expressed mRNA in the absence of chemical substance (yeast gene YHR171W): 0.8 | The level of expressed mRNA in the presence of chemical substance/The level of expressed mRNA in the absence of chemical substance (yeast gene YHR195W): 0.9 | The level of expressed mRNA in the presence of chemical substance/The level of expressed mRNA in the absence of chemical substance (yeast gene YIL034C): 1.0 | The level of expressed mRNA in the presence of chemical substance/The level of expressed mRNA in the absence of chemical substance (yeast gene YIL062C): 0.8 | The level of expressed mRNA in the presence of chemical substance/The level of expressed mRNA in the absence of chemical substance (yeast gene YIL075C): 0.8 | The level of expressed mRNA in the presence of chemical substance/The level of expressed mRNA in the absence of chemical substance (yeast gene YIL123W): 0.8 | The level of expressed mRNA in the presence of chemical substance/The level of expressed mRNA in the absence of chemical substance (yeast gene YIL140W): 1.0 | The level of expressed mRNA in the presence of chemical substance/The level of expressed mRNA in the absence of chemical substance (yeast gene YJL073W): 1.0 | The level of expressed mRNA in the presence of chemical substance/The level of expressed mRNA in the absence of chemical substance (yeast gene YJL089W): 1.2 | The level of expressed mRNA in the presence of chemical substance/The level of expressed mRNA in the absence of chemical substance (yeast gene YJL113W): 0.7
